Laboratory results: patent publication US20250084056A1, “SUBSTITUTED OXOISOINDOLINYL PIPERIDINE-2,6-DIONE COMPOUNDS” (BRISTOL-MYERS SQUIBB COMPANY, priority 2023, published 2025)

Key:
GSPT1 = GSPT1 (Homo sapiens, UniProt P15170+Q96SW2); experiment: GSPT1 Cellular Degradation Assay (DF15-GSPT1-ePL); assay type: cell-based; set-up: expressed in transfected cells; details: DF15-GSPT1-ePL cells, 20 hours
Procedure, shortened: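 DC50 and Dmax were derived from chemiluminescence, with 75% response set by the reference compound at […]. Readout was ePL enzyme-fragment complementation in a DF15 line expressing chimeric GSPT1. Cells were exposed to compound for 20 h at 37 °C in RPMI 1640 with 10% FBS, cooled 30 min, then lysed with substrate for 60 min.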

Cyclin E1 = Cyclin E1 (Homo sapiens, UniProt P24864+Q96SW2); experiment: Cyclin E1 Cellular Degradation Assay (MSD); assay type: cell-based; set-up: endogenous in cells; host or cells: OVCAR3
Procedure, shortened: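 Cyclin E1 remaining after 24 h compound exposure of OVCAR3 cells was quantified in lysates by electrochemiluminescent MSD sandwich assay. DC50 (50% response concentration) and Dmax (maximum response) were calculated, with 110% response set by a reference compound at […].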

Sequence of Cyclin E1 (P24864 whole entry): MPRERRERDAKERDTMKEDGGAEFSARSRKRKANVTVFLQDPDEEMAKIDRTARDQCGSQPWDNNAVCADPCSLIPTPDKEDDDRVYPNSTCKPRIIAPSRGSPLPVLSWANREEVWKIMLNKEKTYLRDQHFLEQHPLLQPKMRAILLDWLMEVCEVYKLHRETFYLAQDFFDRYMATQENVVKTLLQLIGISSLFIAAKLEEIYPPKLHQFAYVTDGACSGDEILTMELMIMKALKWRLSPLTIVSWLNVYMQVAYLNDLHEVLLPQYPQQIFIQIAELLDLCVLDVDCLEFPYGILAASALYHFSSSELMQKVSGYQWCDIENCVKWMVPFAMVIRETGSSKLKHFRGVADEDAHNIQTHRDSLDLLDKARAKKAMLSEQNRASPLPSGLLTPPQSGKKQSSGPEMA
Sequence of Cyclin E1 (Q96SW2 whole entry): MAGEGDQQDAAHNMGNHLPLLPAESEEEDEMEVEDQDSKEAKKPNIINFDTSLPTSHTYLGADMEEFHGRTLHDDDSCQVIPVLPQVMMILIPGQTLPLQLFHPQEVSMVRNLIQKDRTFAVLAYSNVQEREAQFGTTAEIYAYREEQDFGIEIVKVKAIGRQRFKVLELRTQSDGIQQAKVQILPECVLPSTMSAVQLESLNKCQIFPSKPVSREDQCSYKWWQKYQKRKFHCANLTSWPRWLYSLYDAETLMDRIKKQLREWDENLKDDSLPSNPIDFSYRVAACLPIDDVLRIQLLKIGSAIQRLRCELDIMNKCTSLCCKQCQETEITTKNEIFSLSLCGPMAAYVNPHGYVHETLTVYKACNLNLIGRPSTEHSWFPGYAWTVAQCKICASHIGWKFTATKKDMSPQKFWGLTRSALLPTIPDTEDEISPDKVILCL
Sequence of Cyclin E1 (Q16531 whole entry partner): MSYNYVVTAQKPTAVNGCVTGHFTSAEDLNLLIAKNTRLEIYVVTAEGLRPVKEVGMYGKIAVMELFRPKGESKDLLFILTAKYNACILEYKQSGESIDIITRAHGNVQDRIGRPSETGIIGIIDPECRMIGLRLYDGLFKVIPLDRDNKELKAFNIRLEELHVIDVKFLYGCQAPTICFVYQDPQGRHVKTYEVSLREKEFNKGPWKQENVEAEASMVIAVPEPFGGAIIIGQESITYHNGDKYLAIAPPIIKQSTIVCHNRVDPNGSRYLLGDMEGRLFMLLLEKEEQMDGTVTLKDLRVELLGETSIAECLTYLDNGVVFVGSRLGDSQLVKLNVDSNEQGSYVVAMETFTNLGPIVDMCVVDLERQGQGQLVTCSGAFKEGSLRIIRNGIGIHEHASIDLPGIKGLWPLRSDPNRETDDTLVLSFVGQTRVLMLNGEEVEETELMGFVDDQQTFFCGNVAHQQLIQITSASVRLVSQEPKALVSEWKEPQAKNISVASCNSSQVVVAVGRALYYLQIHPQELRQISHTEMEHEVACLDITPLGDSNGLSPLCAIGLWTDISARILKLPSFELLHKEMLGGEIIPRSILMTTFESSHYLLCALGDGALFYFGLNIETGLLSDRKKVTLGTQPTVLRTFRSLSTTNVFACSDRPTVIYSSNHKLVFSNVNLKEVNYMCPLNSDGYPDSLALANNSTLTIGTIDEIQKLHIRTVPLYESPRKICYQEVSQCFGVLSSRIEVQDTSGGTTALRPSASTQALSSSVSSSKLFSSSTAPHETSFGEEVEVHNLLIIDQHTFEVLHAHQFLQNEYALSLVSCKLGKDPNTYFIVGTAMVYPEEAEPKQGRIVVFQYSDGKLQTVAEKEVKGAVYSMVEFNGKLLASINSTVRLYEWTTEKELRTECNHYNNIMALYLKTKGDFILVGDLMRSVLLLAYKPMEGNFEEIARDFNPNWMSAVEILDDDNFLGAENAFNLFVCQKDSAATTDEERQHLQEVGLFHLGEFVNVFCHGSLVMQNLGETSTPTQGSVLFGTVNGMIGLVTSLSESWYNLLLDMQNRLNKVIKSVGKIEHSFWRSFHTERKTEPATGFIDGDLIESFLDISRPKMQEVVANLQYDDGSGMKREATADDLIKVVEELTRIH
Sequence of GSPT1 (P15170 whole entry, the tested form may be a part): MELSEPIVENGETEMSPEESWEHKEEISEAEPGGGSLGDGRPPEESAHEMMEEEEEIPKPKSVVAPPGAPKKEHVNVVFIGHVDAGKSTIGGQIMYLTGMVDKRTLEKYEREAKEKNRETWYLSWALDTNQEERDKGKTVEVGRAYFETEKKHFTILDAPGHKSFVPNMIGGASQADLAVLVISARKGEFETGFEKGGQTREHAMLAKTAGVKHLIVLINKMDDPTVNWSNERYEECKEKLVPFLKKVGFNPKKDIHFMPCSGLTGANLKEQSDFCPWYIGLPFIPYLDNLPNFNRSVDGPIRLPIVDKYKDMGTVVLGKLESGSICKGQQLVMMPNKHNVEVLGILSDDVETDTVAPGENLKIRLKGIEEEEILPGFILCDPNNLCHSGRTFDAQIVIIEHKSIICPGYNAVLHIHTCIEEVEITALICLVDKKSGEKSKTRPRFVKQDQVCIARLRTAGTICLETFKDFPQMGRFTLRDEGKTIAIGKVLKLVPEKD
Sequence of GSPT1 (Q96SW2 whole entry, the tested form may be a part): as the sequence (Q96SW2 whole entry) above
Sequence of GSPT1 (Q16531 whole entry partner, the tested form may be a part): as the sequence (Q16531 whole entry partner) above

COc1c(COC(=O)Nc2ccc(Oc3ccc(F)c(F)c3)cc2)ccc2c1C(=O)N([C@H]1CCC(=O)NC1=O)C2 (single isomer, unassigned) [Example 35, {2-[(3 S)-2,6-dioxopiperidin-3-yl]-4-methoxy-3-oxo-2,3-dihydro-1H-isoindol-5-yl}methyl N-[4-(3,4-difluorophenoxy)phenyl]carbamate]
DC50 (GSPT1): > 14 µM
Dmax (GSPT1): 46%
DC50 (Cyclin E1; Cyclin E1 cellular degradation): 0.159 µM
Dmax (Cyclin E1; Cyclin E1 cellular degradation, maximum degradation): 107%
Ratio of GSPT1 DC50/Cyclin E1 DC50 (Cyclin E1; selectivity for degradation of Cyclin E1 over GSPT1): >88
